Test [1] in a line: Membrane off-binding rate (koff) of FtsA from FRAP. Also noted: Off binding rate koff: unit not given here. The note with it: Fig. S4i. The text has this:
We could also use the data from these bleaching experiments to quantify the membrane-binding kinetics and diffusion of membrane-bound proteins by analysing the change of the fluorescence profile during recovery.
Equimolar concentrations of Cy3- and Cy5-labelled FtsA, supplemented with 20% unlabelled FtsA were used to study FRET and FRAP. Five pre-bleach frames were acquired, followed by acceptor photobleaching of a rectangular ROI with 40% 641 nm laser power and a dwell size of 1 µs/pixel, 75% overlapping lines. The recovery of the signal or the increase in donor intensity were measured with either two frames or one frame per second.
Bleaching the acceptor dye leads to an increase in the donor intensity, which can be used to quantify the Foerster Resonance energy transfer (FRET)[48]. FRET efficiency was quantified with E%=Ipost/Ipost+Ipre⋅100 , where Ipost is the intensity of the […] and Ipre is the […]. […] To extract the contribution of both processes, we adjusted a routine recently published by Gerganova et al.[33]. In short, the code provides the contribution of both modes of recovery by analysing the shape of the fluorescence recovery profile. […] Contribution of diffusion leads to a change of the slope of the outer borders of the bleached region (S4h right). Thus, by measuring the change of the slope of the border recovery, diffusion and simple on/off binding can be distinguished. We developed “FRAPdiff”, a graphical user interface, which uses the original fit routine by David Rutkowski. It can be used directly on.tiff movies with annotated bleach regions as ImageJ ROIs. In addition, we added optional bleach correction, user selectable projection axis (x or y), and optional mirroring of the recovery profiles, if bleaching was not symmetric. The original fit routine for estimating the recovery and diffusion dynamics can be found at https://github.com/davidmrutkowski/1DReflectingDiffusion. FRAPdiff is available at 10.5281/zenodo.6400639[49] under the GPLv3 open-source license.

Test [2] has as its system FtsZ. The settings on record: […] Tris-NTA; p-value 3.86 × 10^−4; three repeats. The protocol: (§1) Co-treadmilling of FtsA with FtsZ relies on the dynamic exchange of FtsA on the membrane. […] To investigate the respective contributions of membrane binding kinetics and FtsA self-interaction on the colocalization dynamics with FtsZ, we wanted to create variants of the two FtsA proteins that are permanently attached to the membrane. […] Accordingly, in these experiments the proteins only differ in their tendency to form oligomers.
(§2) To study colocalization of His-tagged variants of FtsA, 0.5–1 µM of Cy5 labelled His-tagged FtsAs were added to the chamber, incubated for 20 min and washed 6x with reaction buffer. […] To control the density of membrane-bound FtsA, SUVs without and with Tris-NTA lipids were mixed to obtain the respective Tris-NTA concentrations. To perform FRET/FRAP experiments, equimolar concentrations of Cy3 and Cy5 labelled His-tagged FtsAs (total 0.5–1 µM) or His-SUMO-Cys were added to a chamber and treated as above. […] FRAP experiments were performed as described before.
Time-lapse videos were first intensity-corrected and contrast-enhanced to avoid bleaching effects and simplify subsequent analysis. To remove contributions of X–Y drift, the videos were processed with the Linear Stack Alignment with SIFT plugin. Proper alignment was checked with the 3TP align plugin (J. A. Parker; Beth Israel Deaconess Medical Center, Boston). Subsequently, regions of interest (ROIs) in the center of the stacks were chosen for colocalization analysis. The Pearson’s correlation coefficient (PCC) was quantified with the Image CorrelationJ 1o plugin. To extract information about the relative ratio of FtsZ/FtsA molecules (slope of linear regression), we also used the Image CorrelationJ 1o plugin. As an output, the plugin provides a scatterplot of FtsZ vs FtsA intensities, to which we fitted a linear slope y=k⋅x+d , where k is the slope and d the offset. The slope was used as an estimate for the ratio of FtsA molecules below FtsZ filaments.

Test [3] deals with FtsZ. The note with it: […] Tris-NTA; p-value […] 10^−4 (vs WT-His6); 7.78 × 10^−5 (vs R286W); three repeats. The protocol:
as §1, §2
Treadmilling dynamics, were quantified using an automated image analysis protocol previously developed by our group. To visualize colocalization of the co-treadmilling FtsZ & FtsA filaments, we used dual-colour videos obtained at an acquisition rate of one frame per 2 s. The two channels were aligned using FIJI’s 3TP align plugin. Both channels were then subjected to the image subtraction protocol and colocalization was measured as described above.

The record followed here is publication PMC9098913, “In vitro reconstitution of Escherichia coli divisome activation” (Nature Communications, 2022).

For “FtsA-His6: FtsA WT (1-405) with amphipathic helix replaced by C-terminal His-tag”, the “Off binding rate koff” value in test [1] (0.10 % Tris-NTA lipids, + FtsZ, summary value) is on record as 0.0359; in test [1] (0.10 % Tris-NTA lipids, replicate 1) it was 0.020; in test [1] (0.10 % Tris-NTA lipids, replicate 2), 0.006; in test [1] (0.10 % Tris-NTA lipids, without FtsZ, summary value), 0.0131; in test [1] (0.40 % Tris-NTA lipids, + FtsZ, summary value) it was 0.0068; in test [1] (0.40 % Tris-NTA lipids, without FtsZ, summary value), 0.0123. The “Off binding rate koff” value in test [1] (0.60 % Tris-NTA lipids, + FtsZ, summary value) came to 0.0048; in test [1] (0.60 % Tris-NTA lipids, without FtsZ, summary value), 0.0097; in test [1] ([…] Tris-NTA lipids, + FtsZ, summary value), 0.0182; in test [1] ([…] Tris-NTA lipids, replicate 1), 0.0017; in test [1] ([…] Tris-NTA lipids, replicate 2), 0.018; in test [1] ([…] Tris-NTA lipids, without FtsZ, summary value), 0.0098. Further, the “PCC His-tagged FtsA/FtsZ” value in the test on FtsZ [2] came to 0.13 ± 0.06. In the test on FtsZ [3], the “PCCdiff His-tagged FtsA/FtsZ” value is recorded as 0.07 ± 0.04.
